Source: US20120220562A1, “Anti-Viral Compounds” (ABBOTT LABAORATORIES, priority 2011, published 2012)

Each molecule was assayed on HCV 1b-Con1 replicon (assay: HCV 1b-Con1 replicon assay in the presence of 5% FBS). Conditions: Hepatitis C virus.
Assay type: cell-based
For `COC(=O)N[C@H](C(=O)N1CCC[C@H]1c1nc2cc(F)c([C@H]3CC[C@H](c4cc5[nH]c([C@@H]6CCCN6C(=O)[C@@H](NC(=O)OC)C6CCCC6)nc5cc4F)N3c3cc(F)c(N4CCN(c5ccc(C(F)(F)F)cc5)CC4)c(F)c3)cc2[nH]1)C1CCCC1` [Example 4.45, dimethyl ([(2R,5R)-1-(3,5-difluoro-4-{4-[4-(trifluoromethyl)phenyl]piperazin-1-yl}phenyl)pyrrolidine-2,5-diyl]bis{(5-fluoro-1H-benzimidazole-6,2-diyl)(2S)pyrrolidine-2,1-diyl[(1S)-1-cyclopentyl-2-oxoethane-2,1-diyl]})bis carbamate], the EC50 was < 100 pM.
With `COC(=O)N[C@H](C(=O)N1CCC[C@H]1c1ncc(-c2cccc(C3(c4cccc(-c5cnc([C@@H]6CCCN6C(=O)[C@@H](NC(=O)OC)C(C)C)[nH]5)c4)CN(c4ccccc4)C3)c2)[nH]1)C(C)C` [Example 12.2, methyl {(2S)-1-[(2S)-2-(5-{3-[3-(3-{2-[(2S)-1-{(2S)-2-[(methoxycarbonyl)amino]-3-methylbutanoyl}pyrrolidin-2-yl]-1H-imidazol-5-yl}phenyl)-1-phenylazetidin-3-yl]phenyl}-1H-imidazol-2-yl)pyrrolidin-1-yl]-3-methyl-1-oxobutan-2-yl}carbamate] the EC50 was 1000 to 10000 pM.
`COC(=O)N[C@H](C(=O)N1CCC[C@H]1c1nc2cc([C@H]3CC[C@H](c4ccc5nc([C@@H]6CCCN6C(=O)[C@@H](NC(=O)OC)C(C)C)[nH]c5c4)N3c3cc(F)c(N4CCC(c5ccccc5)C4)c(F)c3)ccc2[nH]1)C(C)C` (stereo partly drawn) [Example 4.33, methyl {(2S)-1-[(2S)-2-{5-[(2R,5R)-1-[3,5-difluoro-4-(3-phenylpyrrolidin-1-yl)phenyl]-5-{2-[(2S)-1-{(2S)-2-[(methoxycarbonyl)amino]-3-methylbutanoyl}pyrrolidin-2-yl]-1H-benzimidazol-6-yl}pyrrolidin-2-yl]-1H-benzimidazol-2-yl}pyrrolidin-1-yl]-3-methyl-1-oxobutan-2-yl}carbamate] was tested, and the EC50 was < 100 pM.
For `COC(=O)N[C@H](C(=O)N1CCC[C@H]1c1nc2c(F)c([C@H]3CC[C@H](c4ccc5nc([C@@H]6CCCN6C(=O)[C@@H](NC(=O)OC)C(C)C)[nH]c5c4F)N3c3ccc(C(C)(C)C)cc3)ccc2[nH]1)C(C)C` [Example 6.3, methyl {(2S)-1-[(2S)-2-{5-[(2R,5R)-1-(4-tert-butylphenyl)-5-{7-fluoro-2-[(2S)-1-{(2S)-2-[(methoxycarbonyl)amino]-3-methylbutanoyl}pyrrolidin-2-yl]-1H-benzimidazol-6-yl}pyrrolidin-2-yl]-4-fluoro-1H-benzimidazol-2-yl}pyrrolidin-1-yl]-3-methyl-1-oxobutan-2-yl}carbamate], the EC50 was < 100 pM.
With `COC(=O)N[C@H](C(=O)N1CCC[C@H]1c1nc2cc([C@H]3CC[C@H](c4ccc5nc([C@@H]6CCCN6C(=O)[C@@H](NC(=O)OC)C(C)C)[nH]c5c4)N3c3ccc(C4CCCCC4)c(F)c3)ccc2[nH]1)C(C)C` [Example 4.8, methyl {(2S)-1-[(2S)-2-{5-[(2R,5R)-1-(4-cyclohexyl-3-fluorophenyl)-5-{2-[(2S)-1-{(2S)-2-[(methoxycarbonyl)amino]-3-methylbutanoyl}pyrrolidin-2-yl]-1H-benzimidazol-6-yl}pyrrolidin-2-yl]-1H-benzimidazol-2-yl}pyrrolidin-1-yl]-3-methyl-1-oxobutan-2-yl}carbamate] the EC50 was < 100 pM.
With `COC(=O)N[C@H](C(=O)N1CCC[C@H]1c1nc2cc([C@H]3CC[C@H](c4ccc5[nH]c([C@@H]6CCCN6C(=O)[C@@H](NC(=O)OC)C(C)C)nc5c4)N3c3ccc(OCc4ccccc4)cc3)ccc2[nH]1)C(C)C` [Example 4.41, methyl {(2S)-1-[(2S)-2-{5-[(2R,5R)-1-[4-(benzyloxy)phenyl]-5-{2-[(2S)-1-{(2S)-2-[(methoxycarbonyl)amino]-3-methylbutanoyl}pyrrolidin-2-yl]-1H-benzimidazol-5-yl}pyrrolidin-2-yl]-1H-benzimidazol-2-yl}pyrrolidin-1-yl]-3-methyl-1-oxobutan-2-yl}carbamate] the EC50 was < 100 pM.
`COCCOc1ccc(N2[C@@H](c3ccc4[nH]c([C@@H]5CCCN5C(=O)[C@@H](NC(=O)OC)C(C)C)nc4c3)CC[C@@H]2c2ccc3[nH]c([C@@H]4CCCN4C(=O)[C@@H](NC(=O)OC)C(C)C)nc3c2)cc1` [Example 3.3, methyl {(2S)-1-[(2S)-2-(5-{(2R,5R)-5-{2-[(2S)-1-{(2S)-2-[(methoxycarbonyl)amino]-3-methylbutanoyl}pyrrolidin-2-yl]-1H-benzimidazol-5-yl}-1-[4-(2-methoxyethoxy)phenyl]pyrrolidin-2-yl}-1H-benzimidazol-2-yl)pyrrolidin-1-yl]-3-methyl-1-oxobutan-2-yl}carbamate] showed an EC50 of 100 to 1000 pM.
`COC(=O)N[C@H](C(=O)N1CCC[C@H]1c1nc2cc([C@H]3CC[C@H](c4ccc5[nH]c([C@@H]6CCCN6C(=O)[C@@H](NC(=O)OC)C(C)C)nc5c4)N3c3cc(F)c(N4CCC5(CC4)CC5)c(F)c3)ccc2[nH]1)C(C)C` [Example 5.11, methyl {(2S)-1-[(2S)-2-{5-[(2R,5R)-1-[4-(6-azaspiro[2.5]oct-6-yl)-3,5-difluorophenyl]-5-{2-[(2S)-1-{(2S)-2-[(methoxycarbonyl)amino]-3-methylbutanoyl}pyrrolidin-2-yl]-1H-benzimidazol-5-yl}pyrrolidin-2-yl]-1H-benzimidazol-2-yl}pyrrolidin-1-yl]-3-methyl-1-oxobutan-2-yl}carbamate] was tested, and the EC50 was < 100 pM.
`COC(=O)N[C@H](C(=O)N1CCC[C@H]1c1nc2cc([C@H]3CC[C@H](c4cc5nc([C@@H]6CCCN6C(=O)[C@@H](NC(=O)OC)C(C)C)[nH]c5cc4F)N3c3cc(F)c(N4CCCCC4)c(F)c3)c(F)cc2[nH]1)C(C)C` [Example 6.10, methyl {(2S)-1-[(2S)-2-{5-[(2R,5R)-1-[3,5-difluoro-4-(piperidin-1-yl)phenyl]-5-{6-fluoro-2-[(2S)-1-{(2S)-2-[(methoxycarbonyl)amino]-3-methylbutanoyl}pyrrolidin-2-yl]-1H-benzimidazol-5-yl}pyrrolidin-2-yl]-6-fluoro-1H-benzimidazol-2-yl}pyrrolidin-1-yl]-3-methyl-1-oxobutan-2-yl}carbamate] was tested, and the EC50 was < 100 pM.
For `COC(=O)N[C@H](C(=O)N1CCC[C@H]1c1nc2cc([C@@H]3CC[C@@H](c4ccc5[nH]c([C@@H]6CCCN6C(=O)[C@@H](NC(=O)OC)[C@@H](C)OC)nc5c4)N3c3ccc(C4CC4)cc3)ccc2[nH]1)[C@@H](C)OC` [Example 4.14, methyl {(2S,3R)-1-[(2S)-2-{5-[(2S,55)-1-(4-cyclopropylphenyl)-5-(2-{(2S)-1-[N-(methoxycarbonyl)-O-methyl-L-threonyl]pyrrolidin-2-yl}-1H-benzimidazol-5-yl)pyrrolidin-2-yl]-1H-benzimidazol-2-yl}pyrrolidin-1-yl]-3-methoxy-1-oxobutan-2-yl}carbamate], the EC50 was < 100 pM.
In the case of `COC(=O)N[C@H](C(=O)N1[C@H](c2nc3cc([C@H]4CC[C@H](c5cc6nc([C@@H]7C[C@@H]8CCC[C@@H]8N7C(=O)[C@@H](NC(=O)OC)C7CCCC7)[nH]c6cc5F)N4c4cc(F)c(N5CCCCC5)c(F)c4)c(F)cc3[nH]2)C[C@@H]2CCC[C@@H]21)C1CCCC1` [Example 3.40, dimethyl ({(2R,5R)-1-[3,5-difluoro-4-(piperidin-1-yl)phenyl]pyrrolidine-2,5-diyl}bis{(6-fluoro-1H-benzimidazole-5,2-diyl)(2S,3aS,6aS)hexahydrocyclopenta[b]pyrrole-2,1(2H)-diyl[(1S)-1-cyclopentyl-2-oxoethane-2,1-diyl]})biscarbamate], the EC50 is reported as < 100 pM.
